Laboratory results published in patent EP3057951B1, “METHYLENE LINKED QUINOLINYL MODULATORS OF ROR-GAMMA-T” (Janssen Pharmaceutica NV, priority 2013, dated 2015).
Where two headings read alike, the source gives them in different places.

Key:
[1] = target: T1, wild type human RORγt ligand binding domain (RORyt LBD) (Homo sapiens, UniProt P51449); assay: RORγt ThermoFluor assay (thermal shift, binding affinity KD)
T1 construct: His-tag (N); TurboTEV protease cleavage site (ENLYFQG) (N); made in house; host or cells: E. coli (pHIS1, modified pET vector)
T1 sequence (P51449 258-518): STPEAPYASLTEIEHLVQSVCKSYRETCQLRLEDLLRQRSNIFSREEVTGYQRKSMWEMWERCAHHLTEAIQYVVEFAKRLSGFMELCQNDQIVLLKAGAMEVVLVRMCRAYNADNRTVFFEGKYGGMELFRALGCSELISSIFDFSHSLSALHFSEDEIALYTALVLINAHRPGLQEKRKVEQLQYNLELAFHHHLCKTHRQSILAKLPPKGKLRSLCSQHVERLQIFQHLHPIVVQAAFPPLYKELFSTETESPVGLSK

[2] = target: T2, wild type human RORγt LBD (Homo sapiens, UniProt P51449); assay: RORγt (LBD) Reporter Assay (GAL4-luciferase, HEK293T cells); format: cell-based; conditions: for inhibition at 6 µM: HEK-293T, read-out: RORγt (LBD) Reporter Assay, % inhibition @ 6 µM, 6 µM compound concentration; for RORγt (LBD) Reporter Assay, % inhibition @ 6 µM: 6 µM compound concentration
T2 construct: expressed in transfected cells; host or cells: HEK293T
T2 sequence (P51449 258-518): T1 sequence (P51449 258-518)

[3] = HEK293T cells, value after the comma with ∼, > or < could not be included in the average

Row | Kd [1] [nM] | inhibition at 6 µM [2] [%] | IC50 ([2]; HEK293T cells) [nM] | inhibition at 6 µM ([2]; HEK293T cells) [%] | RORγt (LBD) Reporter Assay, % inhibition @ 6 µM ([2]; HEK293T cells) [%] | SMILES | IC50 [2, 3] [nM] | RORγt (LBD) Reporter Assay, % inhibition @ 6 µM [2] [%]
1 | 1400 | 99 |  |  |  | Cn1cc(-c2nc3ccc(C(O)(c4ccc(C(F)(F)F)nc4)c4cncn4C)cc3c(Cl)c2Cc2ccccc2)cn1 (single isomer, unassigned) [Example 111b, (3-Benzyl-4-chloro-2-(1-methyl-1H-pyrazol-4-yl)quinolin-6-yl)(1-methyl-1H-imidazol-5-yl)(6-(trifluoromethyl)pyridin-3-yl)methanol] | ~900 | 
2 | 22000 |  |  |  |  | Cn1cc(-c2nc3ccc(C(O)(c4ccc(C(F)(F)F)nc4)c4cncn4C)cc3c(Cl)c2Cc2ccccc2)cn1 (single isomer, unassigned) [Example 111c, (3-Benzyl-4-chloro-2-(1-methyl-1H-pyrazol-4-yl)quinolin-6-yl)(1-methyl-1H-imidazol-5-yl)(6-(trifluoromethyl)pyridin-3-yl)methanol] | ~5000 | 92
3 | 23000 |  | ~6000 | 58 |  | Cn1cncc1C(O)(c1ccc(C(F)(F)F)nc1)c1ccc2nc(-c3nccn3C)c(Cc3ccccc3)c(Cl)c2c1 (single isomer, unassigned) [Example 113b, (3-Benzyl-4-chloro-2-(1-methyl-1H-imidazol-2-yl)quinolin-6-yl)(1-methyl-1H-imidazol-5-yl)(6-(trifluoromethyl)pyridin-3-yl)methanol] |  | 
4 | 1300 |  | ~4000 | 88 |  | COc1nc2ccc(C(O)(c3ccc(C)nc3C)c3cnnn3C)cc2c(Cl)c1Cc1ccc(S(C)(=O)=O)cc1 (single isomer, unassigned) [Example 117b, (4-Chloro-2-methoxy-3-(4-(methylsulfonyl)benzyl)quinolin-6-yl)(2,6-dimethylpyridin-3-yl)(1-methyl-1H-1,2,3-triazol-5-yl)methanol] |  | 
5 | 5.5 |  | 52 |  | 101 | COc1nc2ccc(C(O)(c3ccc(C)nc3C)c3cnnn3C)cc2c(Cl)c1Cc1ccc(S(C)(=O)=O)cc1 (single isomer, unassigned) [Example 117c, (4-Chloro-2-methoxy-3-(4-(methylsulfonyl)benzyl)quinolin-6-yl)(2,6-dimethylpyridin-3-yl)(1-methyl-1H-1,2,3-triazol-5-yl)methanol] |  | 
6 | 9000 |  | ~6000 |  | 59 | COc1nc2ccc(C(O)(c3ncccn3)c3cncn3C)cc2c(Cl)c1Cc1ccc(-n2cccn2)cc1 (single isomer, unassigned) [Example 131b, {4-Chloro-2-methoxy-3-[4-(1H-pyrazol-1-yl)benzyl]quinolin-6-yl}(1-methyl-1H-imidazol-5-yl)pyrimidin-2-ylmethanol] |  | 
7 | 220 |  | 1600 |  | 100 | COc1nc2ccc(C(O)(c3ncccn3)c3cncn3C)cc2c(Cl)c1Cc1ccc(-n2cccn2)cc1 (single isomer, unassigned) [Example 131c, {4-Chloro-2-methoxy-3-[4-(1H-pyrazol-1-yl)benzyl]quinolin-6-yl}(1-methyl-1H-imidazol-5-yl)pyrimidin-2-ylmethanol] |  | 
8 | 330 |  | 840 | 99 |  | COC1CN(c2nc3ccc(C(O)(c4ccc(C(F)(F)F)nc4)c4cncn4C)cc3c(Cl)c2Cc2ccc(-n3cccn3)cc2)C1 (single isomer, unassigned) [Example 133b, {4-Chloro-2-(3-methoxyazetidin-1-yl)-3-[4-(1H-pyrazol-1-yl)benzyl]quinolin-6-yl}(1-methyl-1H-imidazol-5-yl)[6-(trifluoromethyl)pyridin-3-yl]methanol] |  | 
9 | 12000 |  | 1200 |  | 82 | COC1CN(c2nc3ccc(C(O)(c4ccc(C(F)(F)F)nc4)c4cncn4C)cc3c(Cl)c2Cc2ccc(-n3cccn3)cc2)C1 (single isomer, unassigned) [Example 133c, {4-Chloro-2-(3-methoxyazetidin-1-yl)-3-[4-(1H-pyrazol-1-yl)benzyl]quinolin-6-yl}(1-methyl-1H-imidazol-5-yl)[6-(trifluoromethyl)pyridin-3-yl]methanol] |  | 
10 | 220 |  | 420 | 101 |  | Cn1cncc1C(O)(c1ccc(C(F)(F)F)nc1)c1ccc2nc(N3CC(O)C3)c(Cc3ccc(-n4cccn4)cc3)c(Cl)c2c1 (single isomer, unassigned) [Example 134b, 1-(4-Chloro-6-{hydroxy(1-methyl-1H-imidazol-5-yl)[6-(trifluoromethyl)pyridin-3-yl]methyl}-3-[4-(1H-pyrazol-1-yl)benzyl]quinolin-2-yl)azetidin-3-ol] |  | 
11 | 1200 |  | 1100 |  | 96 | Cn1cncc1C(O)(c1ccc(C(F)(F)F)nc1)c1ccc2nc(N3CC(O)C3)c(Cc3ccc(-n4cccn4)cc3)c(Cl)c2c1 (single isomer, unassigned) [Example 134c, 1-(4-Chloro-6-{hydroxy(1-methyl-1H-imidazol-5-yl)[6-(trifluoromethyl)pyridin-3-yl]methyl}-3-[4-(1H-pyrazol-1-yl)benzyl]quinolin-2-yl)azetidin-3-ol] |  | 
12 | 160 |  | 260 | 99 |  | Cn1cncc1C(O)(c1ccc(C(F)(F)F)nc1)c1ccc2nc(N3CC(F)(F)C3)c(Cc3ccc(-n4cccn4)cc3)c(Cl)c2c1 (single isomer, unassigned) [Example 135b, {4-Chloro-2-(3,3-difluoroazetidin-1-yl)-3-[4-(1H-pyrazol-1-yl)benzyl]quinolin-6-yl}(1-methyl-1H-imidazol-5-yl)[6-(trifluoromethyl)pyridin-3-yl]methanol] |  | 
13 | 23 |  | 77 |  | 95 | Cn1cncc1C(O)(c1ccc(C(F)(F)F)nc1)c1ccc2nc(N3CC(F)(F)C3)c(Cc3ccc(-n4cccn4)cc3)c(Cl)c2c1 (single isomer, unassigned) [Example 135c, {4-Chloro-2-(3,3-difluoroazetidin-1-yl)-3-[4-(1H-pyrazol-1-yl)benzyl]quinolin-6-yl}(1-methyl-1H-imidazol-5-yl)[6-(trifluoromethyl)pyridin-3-yl]methanol] |  | 
14 | 2300 |  | 1000 | 83 |  | Cc1cc(C(O)(c2ccc(Cl)cc2)c2cncn2C)cc2c(Cl)c(Cc3ccc(-n4cccn4)cc3)c(N3CCC3)nc12 (single isomer, unassigned) [Example 136b, {2-Azetidin-1-yl-4-chloro-8-methyl-3-[4-(1H-pyrazol-1-yl)benzyl]quinolin-6-yl}(4-chlorophenyl)(1-methyl-1H-imidazol-5-yl)methanol] |  | 
15 | 19 |  | 140 |  | 97 | Cc1cc(C(O)(c2ccc(Cl)cc2)c2cncn2C)cc2c(Cl)c(Cc3ccc(-n4cccn4)cc3)c(N3CCC3)nc12 (single isomer, unassigned) [Example 136c, {2-Azetidin-1-yl-4-chloro-8-methyl-3-[4-(1H-pyrazol-1-yl)benzyl]quinolin-6-yl}(4-chlorophenyl)(1-methyl-1H-imidazol-5-yl)methanol] |  | 
16 | 41 |  | 160 | 93 |  | Cc1cc(C(O)(c2ccc(C(F)(F)F)nc2)c2cncn2C)cc2c(Cl)c(Cc3ccc(-n4cccn4)cc3)c(N3CCC3)nc12 (single isomer, unassigned) [Example 137b, {2-Azetidin-1-yl-4-chloro-8-methyl-3-[4-(1H-pyrazol-1-yl)benzyl]quinolin-6-yl}(1-methyl-1H-imidazol-5-yl)[6-(trifluoromethyl)pyridin-3-yl]methanol] |  | 
17 | 4.5 |  | 140 |  | 94 | Cc1cc(C(O)(c2ccc(C(F)(F)F)nc2)c2cncn2C)cc2c(Cl)c(Cc3ccc(-n4cccn4)cc3)c(N3CCC3)nc12 (single isomer, unassigned) [Example 137c, {2-Azetidin-1-yl-4-chloro-8-methyl-3-[4-(1H-pyrazol-1-yl)benzyl]quinolin-6-yl}(1-methyl-1H-imidazol-5-yl)[6-(trifluoromethyl)pyridin-3-yl]methanol] |  | 

Row | SMILES | Kd [1] [nM] | inhibition at 6 µM [2] [%] | IC50 ([2]; HEK293T cells) [nM] | inhibition at 6 µM ([2]; HEK293T cells) [%] | RORγt (LBD) Reporter Assay, % inhibition @ 6 µM ([2]; HEK293T cells) [%] | IC50 [2, 3] [nM] | RORγt (LBD) Reporter Assay, % inhibition @ 6 µM [2] [%]
18 | Cn1cc(-c2nc3ccc(C(O)(c4ccc(C(F)(F)F)nc4)c4cncn4C)cc3c(C#N)c2Cc2ccccc2)cn1 (single isomer, unassigned) [Example 112b, 3-Benzyl-6-(hydroxy(1-methyl-1H-imidazol-5-yl)(6-(trifluoromethyl)pyridin-3-yl)methyl)-2-(1-methyl-1H-pyrazol-4-yl)quinoline-4-carbonitrile] | 2200 |  |  |  |  | 450 | 92
19 | Cn1cc(-c2nc3ccc(C(O)(c4ccc(C(F)(F)F)nc4)c4cncn4C)cc3c(C#N)c2Cc2ccccc2)cn1 (single isomer, unassigned) [Example 112c, 3-Benzyl-6-(hydroxy(1-methyl-1H-imidazol-5-yl)(6-(trifluoromethyl)pyridin-3-yl)methyl)-2-(1-methyl-1H-pyrazol-4-yl)quinoline-4-carbonitrile] | 13000 |  |  |  |  | ~5000 | 71
